Measured values: publication PMC7397269, “Synthesis and Evaluation of New Coumarin Derivatives as Antioxidant, Antimicrobial, and Anti-Inflammatory Agents” (Molecules, 2020)
In brackets after ≈: the same amount, converted by molar mass. Several values for one entry are separate records, joined by “and”; a condition that tells them apart may be missing. Equal values may be shown once. Read-outs that look alike come from different tables or passages of the source.

Legend:
[1] = tested on: Staphylococcus aureus ATCC 29213; test: Agar well diffusion, S. aureus; format: cell-based; settings: ATCC29213, 100 μL of 10 mg/mL in DMSO, read-out: diameter of inhibition zone, SA
Summary of the method: (§1)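 Bacterial lawns (100 μL of 1 × 10^8 CFU/mL) were spread on nutrient agar and yeast lawns (1 × 10^6 CFU/mL) on Sabouraud dextrose agar. 10 mm wells received 100 μL of compound at 10 mg/mL in DMSO, and plates were incubated 24 h at 37 °C. Inhibition zone diameter (mm) was averaged over triplicates.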

[2] = tested on: Bacillus subtilis ATCC 6633; test: Agar well diffusion, B. subtilis; format: cell-based; settings: ATCC6633, 100 μL of 10 mg/mL in DMSO, read-out: diameter of inhibition zone, BS
Summary of the method: as §1

[3] = tested on: Escherichia coli ATCC 2592; test: Agar well diffusion, E. coli; format: cell-based; settings: ATCC2592, 100 μL of 10 mg/mL in DMSO, read-out: diameter of inhibition zone, EC
Summary of the method: as §1

[4] = tested on: Saccharomyces cerevisiae local isolate; test: Agar well diffusion, S. cerevisiae; format: cell-based; settings: read-out: diameter of inhibition zone, SC
Summary of the method: as §1

[5] = tested on: Staphylococcus aureus ATCC 29213; test: MIC, two-fold serial dilution, S. aureus; format: cell-based; settings: ATCC29213, read-out: Minimum inhibitory concentration, SA
Summary of the method: (§2)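 Compounds with agar-well inhibition zone >16 mm went on to two-fold broth dilution at final 1000, 500, 250 and 125 μg/mL. Inocula were 1×10^8 CFU/mL for bacteria and 1×10^6 CFU/mL for yeast (0.1 mL per 5 mL), incubated 37 °C for 24 h. MIC taken as the lowest concentration with no growth.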

[6] = tested on: Bacillus megaterium ATCC 9885; test: MIC, two-fold serial dilution, B. megaterium; format: cell-based; settings: Priestia megaterium, ATCC9885, read-out: Minimum inhibitory concentration, BM
From the text: (§3) The new molecules were individually tested for their antimicrobial activity in vitro against standard bacteria strains from the American Type Culture Collection (ATCC), namely, Staphylococcus aureus ATCC 29213, Bacillus subtilis ATCC 6633, Bacillus megaterium ATCC 9885 (Gram-positive), Escherichia coli ATCC 2592, and Pseudomonas aeruginosa ATCC 27,953 (Gram-negative). The compounds were also microbiologically tested against locally isolated Saccharomyces cerevisiae (yeast) and the standard Agricultural Research Service Culture Collection (NRRL) strain of the yeast-like pathogenic fungus Candida albicans NRRL Y-477. Primary screening was conducted using the agar well diffusion method using nutrient agar (NA) medium and Sabourand dextrose agar (SDA) medium for the tested pathological bacteria and yeast, respectively. […].
(§4) The bacteriostatic activity of the active compounds (having IZ > 16 mm) was then evaluated using the two-fold serial dilution technique. Two-fold serial dilutions of the tested compounds solutions were prepared using the proper nutrient broth to reach final concentrations of 1000, 500, 250, and 125 μg/mL. The tubes were then inoculated with the test microorganisms grown in their suitable broth at 37 °C for 24 h (1 × 10^8 CFU/mL for bacteria and 1 × 10^6 CFU/mL of yeast), 0.1 mL of the above inoculum was administered per 5 mL, and the tubes were incubated at 37 °C for 24 h. The lowest concentration showing no growth was taken as the MIC.

[7] = tested on: Escherichia coli ATCC 2592; test: MIC, two-fold serial dilution, E. coli; format: cell-based; settings: ATCC2592, read-out: Minimum inhibitory concentration, EC
From the text: as §3, §4

[8] = tested on: Pseudomonas aeruginosa ATCC 27,953; test: MIC, two-fold serial dilution, P. aeruginosa; format: cell-based; settings: ATCC27, read-out: Minimum inhibitory concentration, PA
From the text: as §3, §4

[9] = tested on: Saccharomyces cerevisiae local isolate; test: MIC, two-fold serial dilution, S. cerevisiae; format: cell-based; settings: read-out: Minimum inhibitory concentration, SC
Summary of the method: as §2

[10] = tested on: Candida albicans NRRL Y-477; test: MIC, two-fold serial dilution, C. albicans; format: cell-based; settings: NRRLY477, read-out: Minimum inhibitory concentration, CA
Summary of the method: as §2

[11] = tested on: trypsin; test: Proteinase-inhibitory activity; format: biochemical; settings: 250 µg/mL; mean ± SD (n = 3)
Summary of the method: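 Trypsin (0.06 mg per 2 mL, 20 mM Tris-HCl pH 7.4) was preincubated 5 min with test sample at 250 µg/mL, then 0.8% casein was added for 20 min. Perchloric acid stopped the reaction and supernatant absorbance was read at 280 nm. % inhibition is relative to the no-sample control, in triplicate.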

[12] = biological target: T1, COX-1 (Homo sapiens, UniProt P23219); test: COX-1 inhibition, Cayman assay kit; format: biochemical; settings: mean of two determinations
T1 construct: purchased Cayman Chemical 701070

[13] = biological target: T2, COX-2 (Homo sapiens, UniProt P35354); test: COX-2 inhibition, Cayman assay kit; format: biochemical; settings: for IC50: mean of two determinations; for SI, selectivity index (COX-1/COX-2): ratio of COX-1/COX-2 IC50
T2 construct: purchased Cayman Chemical 701080
T2 sequence (P35354 18-604): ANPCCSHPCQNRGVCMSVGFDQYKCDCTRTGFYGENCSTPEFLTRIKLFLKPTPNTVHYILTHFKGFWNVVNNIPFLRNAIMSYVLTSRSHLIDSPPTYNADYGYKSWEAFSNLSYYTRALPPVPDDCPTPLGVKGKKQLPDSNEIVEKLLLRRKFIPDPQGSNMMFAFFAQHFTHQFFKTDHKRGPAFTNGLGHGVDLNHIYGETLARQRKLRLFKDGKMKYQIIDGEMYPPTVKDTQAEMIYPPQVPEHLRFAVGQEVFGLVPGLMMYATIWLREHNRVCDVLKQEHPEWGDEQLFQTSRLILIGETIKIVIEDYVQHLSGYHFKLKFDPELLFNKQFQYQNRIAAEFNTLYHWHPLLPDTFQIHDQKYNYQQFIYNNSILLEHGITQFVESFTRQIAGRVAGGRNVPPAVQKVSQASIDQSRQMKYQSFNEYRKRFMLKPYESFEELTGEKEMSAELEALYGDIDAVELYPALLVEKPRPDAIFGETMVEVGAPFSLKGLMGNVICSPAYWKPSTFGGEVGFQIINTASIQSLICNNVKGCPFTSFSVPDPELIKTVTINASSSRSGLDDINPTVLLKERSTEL

[14] = well diffusion, 100 μL of 10 mg/mL in DMSO, S. cerevisiae
[15] = two-fold serial dilution, S. cerevisiae

T1 sequence (P23219 24-599): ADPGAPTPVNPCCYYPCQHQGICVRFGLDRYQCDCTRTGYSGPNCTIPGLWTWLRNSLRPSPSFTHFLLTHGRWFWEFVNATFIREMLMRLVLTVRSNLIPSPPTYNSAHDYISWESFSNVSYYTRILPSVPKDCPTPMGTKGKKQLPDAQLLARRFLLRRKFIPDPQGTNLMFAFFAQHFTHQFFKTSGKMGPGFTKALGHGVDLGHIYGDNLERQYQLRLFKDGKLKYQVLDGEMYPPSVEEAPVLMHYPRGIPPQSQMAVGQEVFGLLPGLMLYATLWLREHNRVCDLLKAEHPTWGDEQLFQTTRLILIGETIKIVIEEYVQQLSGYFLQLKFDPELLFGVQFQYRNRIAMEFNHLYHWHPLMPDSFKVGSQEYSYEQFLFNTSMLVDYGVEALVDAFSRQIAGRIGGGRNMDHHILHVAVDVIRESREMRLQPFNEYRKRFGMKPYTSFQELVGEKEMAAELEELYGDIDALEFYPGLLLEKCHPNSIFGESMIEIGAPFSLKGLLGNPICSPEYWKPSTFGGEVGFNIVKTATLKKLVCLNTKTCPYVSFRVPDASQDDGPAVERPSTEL

Structure (SMILES)	zone of inhibition at 10000 µg/mL [1] [mm]	zone of inhibition at 10000 µg/mL [2] [mm]	zone of inhibition at 10000 µg/mL [3] [mm]	zone of inhibition at 10000 µg/mL [4] [mm]	MIC [5] [µg/mL]	MIC [6] [µg/mL]	MIC [7] [µg/mL]	MIC [8] [µg/mL]	MIC [9] [µg/mL]	MIC [10] [µg/mL]	% Inhibition (proteinase) [11] [%]	IC50 [12] [µM]	IC50 [13] [µM]	SI, selectivity index (COX-1/COX-2) [13]	melting point [°C]	zone of inhibition at 10000 µg/mL [4, 14] [mm]	MIC [9, 15] [µg/mL]
Cc1ccc2oc(=O)c3c(c2c1)OC(N)=C(C#N)C3c1ccc([N+](=O)[O-])cc1 (racemic) [2a, (±)-2-Amino-9-methyl-4-(4-nitrophenyl)-5-oxo-4H,5H-pyrano[3,2-c]chromene-3-carbonitrile]	24	22	18	25	500 (≈ 1330 µM)	500 (≈ 1330 µM)	1000 (≈ 2660 µM)	500 (≈ 1330 µM)	500 (≈ 1330 µM)	500 (≈ 1330 µM)	17.38 ± 1.63	117	2.74	42.58	259 to 261	–	–
Cc1ccc2oc(=O)c3c(c2c1)OC(N)=C(C#N)C3c1ccco1 (racemic) [2b, (±)-2-Amino-4-(furan-2-yl)-9-methyl-5-oxo-4H,5H-pyrano[3,2-c]chromene-3-carbonitrile]	25	23	18	27	500 (≈ 1560 µM)	500 (≈ 1560 µM)	1000 (≈ 3120 µM)	1000 (≈ 3120 µM)	500 (≈ 1560 µM)	500 (≈ 1560 µM)	74.68 ± 3.01	201	4.25	47.3 and 47.33	251 to 253	–	–
COc1cc(/C=N/C2=C(C#N)C(c3ccc([N+](=O)[O-])cc3)c3c(c4cc(C)ccc4oc3=O)O2)cc(OC)c1OC (racemic) [5c, (±)-9-methyl-4-(4-nitrophenyl)-5-oxo-2-((3,4,5-trimethoxybenzylidene)amino)-4H,5H-pyrano[3,2-c]chromene-3-carbonitrile]	23	23	24	27	500 (≈ 903 µM)	500 (≈ 903 µM)	500 (≈ 903 µM)	500 (≈ 903 µM)	500 (≈ 903 µM)	500 (≈ 903 µM)	68.5 ± 6.23	18.5	13.3	1.39	221 to 223	–	–
Cc1ccc2oc(=O)c3c(c2c1)OC(/N=C/c1ccc(Cl)cc1Cl)=C(C#N)C3c1ccco1 (racemic) [5f, (±)-2-((2,4-dichlorobenzylidene)amino)-4-(furan-2-yl)-9-methyl-5-oxo-4H,5H-pyrano[3,2-c]chromene-3-carbonitrile]	25	23	20	24	500 (≈ 1050 µM)	1000 (≈ 2100 µM)	1000 (≈ 2100 µM)	1000 (≈ 2100 µM)	500 (≈ 1050 µM)	500 (≈ 1050 µM)	26.83 ± 5.33	90.2	3.1	29.1	> 300	–	–
NS(=O)(=O)c1ccc(NS(=O)(=O)c2c(O)c3cc(Cl)ccc3oc2=O)cc1 [7a, 6-Chloro-4-hydroxy-2-oxo-N-(4-sulfamoylphenyl)-2H-chromene-3-sulfonamide]	28	29	28	–	250 (≈ 580 µM)	500 (≈ 1160 µM)	250 (≈ 580 µM)	250 (≈ 580 µM)	–	250 (≈ 580 µM)	18.78 ± 2.05	239	17.4	13.75	245 to 247	26	250 (≈ 580 µM)
O=c1oc2ccc(Cl)cc2c(O)c1S(=O)(=O)Nc1ccc(S(=O)(=O)Nc2ncccn2)cc1 [7c, 6-Chloro-4-hydroxy-2-oxo-N-(4-(N-(pyrimidin-2-yl)sulfamoyl)phenyl)-2H-chromene-3-sulfonamide]	30	31	30	–	125 (≈ 246 µM)	125 (≈ 246 µM)	125 (≈ 246 µM)	250 (≈ 491 µM)	–	125 (≈ 246 µM)	8.9 ± 2.04	62.3	19.9	3.12	230 to 232	31 to 32	125 (≈ 246 µM)
